# Assay results: ChEMBL document CHEMBL5465560, “Selectivity Literature for EUbOPEN Chemogenomic Library” (2024)
# Key:
# [1] = biological target: Ribosomal protein S6 kinase alpha-6 (Homo sapiens, UniProt Q9UK32); assay: Selectivity interaction (KinomeScan (DiscoverX)) EUB0000229b RPS6KA6; conditions: at 10 µM
# [2] = biological target: T1, Serine/threonine-protein kinase Nek2 (Homo sapiens) (UniProt P51955); assay: Selectivity interaction (Upstate Kinase Profiler service (Millipore)) EUB0000056c NEK2; conditions: at 1 µM
# T1 sequence (whole entry): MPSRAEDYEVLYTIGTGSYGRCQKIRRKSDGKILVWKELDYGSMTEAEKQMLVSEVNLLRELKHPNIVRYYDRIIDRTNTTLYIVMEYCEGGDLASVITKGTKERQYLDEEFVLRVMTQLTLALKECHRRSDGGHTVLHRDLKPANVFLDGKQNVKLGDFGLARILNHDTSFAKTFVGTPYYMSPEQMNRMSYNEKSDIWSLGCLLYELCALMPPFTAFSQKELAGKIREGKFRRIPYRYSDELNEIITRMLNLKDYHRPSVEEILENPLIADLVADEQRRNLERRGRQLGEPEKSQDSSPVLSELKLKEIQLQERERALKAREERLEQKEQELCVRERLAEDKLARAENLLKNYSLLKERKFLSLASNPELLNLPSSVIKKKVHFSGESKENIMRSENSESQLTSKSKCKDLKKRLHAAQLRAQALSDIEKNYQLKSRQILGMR
# [3] = biological target: Tyrosine-protein kinase JAK1 (Homo sapiens, UniProt P23458); assay: Selectivity interaction (KinomeScan (DiscoverX)) EUB0001079a JAK1; conditions: at 1 µM
# Tyrosine-protein kinase JAK1, sequence (P23458 whole entry): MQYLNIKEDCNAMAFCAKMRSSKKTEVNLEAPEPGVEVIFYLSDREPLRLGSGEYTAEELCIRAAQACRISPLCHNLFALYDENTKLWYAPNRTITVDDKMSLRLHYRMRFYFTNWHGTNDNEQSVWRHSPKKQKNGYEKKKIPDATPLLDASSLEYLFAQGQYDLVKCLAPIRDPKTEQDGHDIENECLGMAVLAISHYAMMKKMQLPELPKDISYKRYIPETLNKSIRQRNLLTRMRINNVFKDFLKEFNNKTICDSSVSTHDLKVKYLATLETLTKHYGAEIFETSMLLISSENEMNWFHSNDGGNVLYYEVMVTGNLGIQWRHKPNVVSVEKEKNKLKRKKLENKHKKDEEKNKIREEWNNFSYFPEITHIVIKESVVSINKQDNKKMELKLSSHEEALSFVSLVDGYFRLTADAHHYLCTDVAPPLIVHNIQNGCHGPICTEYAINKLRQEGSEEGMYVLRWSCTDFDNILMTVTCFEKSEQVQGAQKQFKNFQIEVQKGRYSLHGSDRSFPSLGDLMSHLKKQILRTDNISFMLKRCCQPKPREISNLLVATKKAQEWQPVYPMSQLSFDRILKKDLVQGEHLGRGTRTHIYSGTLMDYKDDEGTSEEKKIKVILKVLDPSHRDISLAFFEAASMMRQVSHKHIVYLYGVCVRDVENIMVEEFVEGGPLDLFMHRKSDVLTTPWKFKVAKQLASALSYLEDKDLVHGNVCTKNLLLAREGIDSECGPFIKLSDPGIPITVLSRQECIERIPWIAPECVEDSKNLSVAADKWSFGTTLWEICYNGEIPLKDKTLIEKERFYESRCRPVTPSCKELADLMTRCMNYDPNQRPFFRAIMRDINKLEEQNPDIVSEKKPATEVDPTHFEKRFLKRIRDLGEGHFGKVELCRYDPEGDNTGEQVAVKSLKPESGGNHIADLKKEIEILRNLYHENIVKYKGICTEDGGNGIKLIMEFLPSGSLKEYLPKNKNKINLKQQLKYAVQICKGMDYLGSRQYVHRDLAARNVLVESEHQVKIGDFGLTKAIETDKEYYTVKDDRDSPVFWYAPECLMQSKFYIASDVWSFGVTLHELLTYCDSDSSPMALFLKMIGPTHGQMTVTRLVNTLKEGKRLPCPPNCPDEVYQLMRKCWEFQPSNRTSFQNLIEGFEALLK
# [4] = biological target: T2, Serine/threonine-protein kinase TBK1 (Homo sapiens) (UniProt Q9UHD2); conditions: at 10 µM
# T2 sequence (whole entry): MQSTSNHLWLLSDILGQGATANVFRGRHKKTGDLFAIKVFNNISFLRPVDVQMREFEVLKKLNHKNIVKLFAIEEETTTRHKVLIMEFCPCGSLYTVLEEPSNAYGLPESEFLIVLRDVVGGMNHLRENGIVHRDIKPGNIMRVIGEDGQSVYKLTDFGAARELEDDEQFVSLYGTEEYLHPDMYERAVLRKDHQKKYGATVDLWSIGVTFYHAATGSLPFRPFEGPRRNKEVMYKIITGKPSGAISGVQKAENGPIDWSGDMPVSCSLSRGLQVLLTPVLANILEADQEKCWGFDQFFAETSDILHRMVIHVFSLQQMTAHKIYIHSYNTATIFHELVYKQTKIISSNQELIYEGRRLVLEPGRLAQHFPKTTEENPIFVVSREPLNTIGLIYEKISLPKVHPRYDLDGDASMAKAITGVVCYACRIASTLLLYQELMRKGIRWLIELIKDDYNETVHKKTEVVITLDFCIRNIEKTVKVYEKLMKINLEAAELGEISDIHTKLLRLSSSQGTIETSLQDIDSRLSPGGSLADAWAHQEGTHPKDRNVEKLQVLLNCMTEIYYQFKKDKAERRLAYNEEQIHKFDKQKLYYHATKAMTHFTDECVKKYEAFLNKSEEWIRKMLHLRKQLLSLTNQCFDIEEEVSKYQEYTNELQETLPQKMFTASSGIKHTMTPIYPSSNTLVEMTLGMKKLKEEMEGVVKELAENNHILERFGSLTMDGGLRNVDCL
# [5] = biological target: Protein kinase C theta type (Homo sapiens, UniProt Q04759); assay: Selectivity interaction (KinomeScan (DiscoverX)) EUB0000311b PRKCQ; conditions: at 1 µM
# Protein kinase C theta type, sequence (Q04759 whole entry, looked up): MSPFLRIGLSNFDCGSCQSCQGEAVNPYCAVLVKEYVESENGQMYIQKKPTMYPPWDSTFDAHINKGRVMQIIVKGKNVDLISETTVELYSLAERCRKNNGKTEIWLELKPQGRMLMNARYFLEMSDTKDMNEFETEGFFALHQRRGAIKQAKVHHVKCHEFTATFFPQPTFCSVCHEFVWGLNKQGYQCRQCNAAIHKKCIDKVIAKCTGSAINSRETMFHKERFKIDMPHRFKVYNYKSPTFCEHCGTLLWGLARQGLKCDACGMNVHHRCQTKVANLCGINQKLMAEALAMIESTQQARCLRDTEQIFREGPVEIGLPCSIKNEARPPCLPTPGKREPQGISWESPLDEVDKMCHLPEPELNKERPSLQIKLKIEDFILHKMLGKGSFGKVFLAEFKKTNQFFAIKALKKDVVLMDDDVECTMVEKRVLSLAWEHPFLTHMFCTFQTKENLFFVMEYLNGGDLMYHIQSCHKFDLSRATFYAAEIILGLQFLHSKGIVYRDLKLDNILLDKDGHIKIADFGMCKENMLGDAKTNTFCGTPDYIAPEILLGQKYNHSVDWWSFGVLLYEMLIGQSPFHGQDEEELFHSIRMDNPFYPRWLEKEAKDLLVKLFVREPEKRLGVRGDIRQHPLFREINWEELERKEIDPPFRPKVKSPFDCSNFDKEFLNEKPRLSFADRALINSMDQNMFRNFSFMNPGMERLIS
# [6] = biological target: Cyclin-dependent kinase 17 (Homo sapiens) (UniProt Q00537); assay: Selectivity interaction (ActivX KiNativ screen (kinase selectivity in THP-1 cell lysates)) EUB0000639a CDK17; assay type: subcellular; conditions: lysate, at 1 µM
# Cyclin-dependent kinase 17 (Homo sapiens), sequence (Q00537 whole entry, looked up): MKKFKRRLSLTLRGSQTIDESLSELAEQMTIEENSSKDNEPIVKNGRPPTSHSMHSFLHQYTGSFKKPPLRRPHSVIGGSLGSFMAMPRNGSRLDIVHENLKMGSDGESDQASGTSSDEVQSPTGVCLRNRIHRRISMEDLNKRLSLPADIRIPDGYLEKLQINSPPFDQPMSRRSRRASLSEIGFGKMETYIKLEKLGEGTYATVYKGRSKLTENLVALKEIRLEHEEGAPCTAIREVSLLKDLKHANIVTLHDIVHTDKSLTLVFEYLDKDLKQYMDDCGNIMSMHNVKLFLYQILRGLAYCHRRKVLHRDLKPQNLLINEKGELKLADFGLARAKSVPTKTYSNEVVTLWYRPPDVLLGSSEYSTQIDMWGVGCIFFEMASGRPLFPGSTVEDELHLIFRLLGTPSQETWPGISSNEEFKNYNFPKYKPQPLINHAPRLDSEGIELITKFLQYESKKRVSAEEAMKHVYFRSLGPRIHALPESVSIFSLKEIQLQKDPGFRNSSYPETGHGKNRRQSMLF
# [7] = biological target: T3, Gamma-aminobutyric acid receptor subunit alpha-1 (Homo sapiens) (UniProt P14867); assay: Selectivity interaction (Panel of non-epigenetic targets (kinases, GPCRs, ion channels, and transporters, Eurofins) ) EUB0000271b GABRA1; conditions: at 1 µM
# T3 sequence (whole entry): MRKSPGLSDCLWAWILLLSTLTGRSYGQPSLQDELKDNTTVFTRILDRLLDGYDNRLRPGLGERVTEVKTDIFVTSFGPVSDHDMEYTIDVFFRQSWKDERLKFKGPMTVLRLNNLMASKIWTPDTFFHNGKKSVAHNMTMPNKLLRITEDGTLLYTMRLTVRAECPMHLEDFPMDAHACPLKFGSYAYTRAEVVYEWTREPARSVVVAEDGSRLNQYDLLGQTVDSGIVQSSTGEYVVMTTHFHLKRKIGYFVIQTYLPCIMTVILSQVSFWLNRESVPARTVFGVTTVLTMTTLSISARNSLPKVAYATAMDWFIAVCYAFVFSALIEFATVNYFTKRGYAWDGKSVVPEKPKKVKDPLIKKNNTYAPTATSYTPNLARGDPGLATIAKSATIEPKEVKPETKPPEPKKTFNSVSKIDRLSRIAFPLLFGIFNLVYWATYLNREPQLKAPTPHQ
# [8] = biological target: TGF-beta receptor type-2 (Homo sapiens) (UniProt P37173); conditions: at 10 µM
# TGF-beta receptor type-2 (Homo sapiens), sequence (P37173 whole entry): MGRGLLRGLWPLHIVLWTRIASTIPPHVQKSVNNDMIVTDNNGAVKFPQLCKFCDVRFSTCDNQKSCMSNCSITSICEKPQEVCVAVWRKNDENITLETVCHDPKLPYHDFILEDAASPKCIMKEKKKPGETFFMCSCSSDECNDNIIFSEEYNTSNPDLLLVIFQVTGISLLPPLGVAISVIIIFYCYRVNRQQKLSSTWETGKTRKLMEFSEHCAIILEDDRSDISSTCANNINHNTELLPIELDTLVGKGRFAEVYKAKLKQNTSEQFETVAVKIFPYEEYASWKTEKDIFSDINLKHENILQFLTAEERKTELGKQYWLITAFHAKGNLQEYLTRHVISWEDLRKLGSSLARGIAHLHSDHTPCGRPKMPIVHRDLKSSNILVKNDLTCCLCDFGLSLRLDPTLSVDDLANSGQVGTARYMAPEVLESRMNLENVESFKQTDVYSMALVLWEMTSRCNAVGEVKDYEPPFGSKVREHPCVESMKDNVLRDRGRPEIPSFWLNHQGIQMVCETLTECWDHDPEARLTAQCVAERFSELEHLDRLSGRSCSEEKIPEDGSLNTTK
# [9] = biological target: Serine/threonine-protein kinase 10 (Homo sapiens) (UniProt O94804); assay: Selectivity interaction (KinomeScan (DiscoverX)) EUB0001619a STK10; conditions: at 1 µM
# Serine/threonine-protein kinase 10 (Homo sapiens), sequence (O94804 whole entry, looked up): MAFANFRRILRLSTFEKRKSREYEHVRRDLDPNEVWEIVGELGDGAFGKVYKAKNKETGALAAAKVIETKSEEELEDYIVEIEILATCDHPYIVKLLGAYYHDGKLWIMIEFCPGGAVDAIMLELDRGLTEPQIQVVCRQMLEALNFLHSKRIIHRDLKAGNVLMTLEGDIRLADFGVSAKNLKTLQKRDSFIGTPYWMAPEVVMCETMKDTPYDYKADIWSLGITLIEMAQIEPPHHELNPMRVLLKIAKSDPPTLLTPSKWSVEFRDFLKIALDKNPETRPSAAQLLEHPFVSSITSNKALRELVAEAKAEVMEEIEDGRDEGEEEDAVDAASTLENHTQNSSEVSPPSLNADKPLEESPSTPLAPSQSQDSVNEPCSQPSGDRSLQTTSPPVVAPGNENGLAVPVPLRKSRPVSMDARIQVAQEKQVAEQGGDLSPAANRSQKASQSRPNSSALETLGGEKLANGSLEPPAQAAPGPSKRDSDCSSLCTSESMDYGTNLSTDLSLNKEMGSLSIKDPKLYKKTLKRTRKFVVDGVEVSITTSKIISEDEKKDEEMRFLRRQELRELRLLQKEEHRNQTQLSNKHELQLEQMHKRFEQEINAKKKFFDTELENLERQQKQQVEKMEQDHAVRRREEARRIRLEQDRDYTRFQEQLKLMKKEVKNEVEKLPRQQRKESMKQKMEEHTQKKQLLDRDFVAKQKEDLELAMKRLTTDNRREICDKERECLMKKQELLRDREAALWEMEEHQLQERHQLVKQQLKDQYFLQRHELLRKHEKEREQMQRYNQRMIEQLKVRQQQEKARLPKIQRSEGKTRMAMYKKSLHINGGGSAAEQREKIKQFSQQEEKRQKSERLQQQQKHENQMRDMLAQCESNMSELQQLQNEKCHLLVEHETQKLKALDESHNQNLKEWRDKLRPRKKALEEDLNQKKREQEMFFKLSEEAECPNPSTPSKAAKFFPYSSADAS
# [10] = biological target: T4, Serine/threonine-protein kinase 3 (Homo sapiens) (UniProt Q13188); assay: Selectivity interaction (ActivX KiNativ screen (ex vivo kinase selectivity in human PBMCs)) EUB0001619a STK3; assay type: cell-based; conditions: PBMC, at 1 µM
# T4 sequence (whole entry): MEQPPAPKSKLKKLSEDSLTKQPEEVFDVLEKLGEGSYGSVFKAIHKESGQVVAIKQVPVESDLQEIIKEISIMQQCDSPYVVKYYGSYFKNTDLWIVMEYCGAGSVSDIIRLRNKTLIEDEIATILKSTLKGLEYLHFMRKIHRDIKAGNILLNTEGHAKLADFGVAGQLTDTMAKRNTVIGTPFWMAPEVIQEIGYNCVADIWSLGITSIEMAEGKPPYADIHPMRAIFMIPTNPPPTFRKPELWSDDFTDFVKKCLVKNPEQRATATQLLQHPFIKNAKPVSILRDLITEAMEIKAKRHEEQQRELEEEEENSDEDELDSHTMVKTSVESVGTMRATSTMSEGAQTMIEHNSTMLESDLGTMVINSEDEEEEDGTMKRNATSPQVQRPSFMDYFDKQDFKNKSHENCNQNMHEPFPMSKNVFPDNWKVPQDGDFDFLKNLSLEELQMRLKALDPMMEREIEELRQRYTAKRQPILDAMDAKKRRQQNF
# Ribosomal protein S6 kinase alpha-6, sequence (Q9UK32 whole entry): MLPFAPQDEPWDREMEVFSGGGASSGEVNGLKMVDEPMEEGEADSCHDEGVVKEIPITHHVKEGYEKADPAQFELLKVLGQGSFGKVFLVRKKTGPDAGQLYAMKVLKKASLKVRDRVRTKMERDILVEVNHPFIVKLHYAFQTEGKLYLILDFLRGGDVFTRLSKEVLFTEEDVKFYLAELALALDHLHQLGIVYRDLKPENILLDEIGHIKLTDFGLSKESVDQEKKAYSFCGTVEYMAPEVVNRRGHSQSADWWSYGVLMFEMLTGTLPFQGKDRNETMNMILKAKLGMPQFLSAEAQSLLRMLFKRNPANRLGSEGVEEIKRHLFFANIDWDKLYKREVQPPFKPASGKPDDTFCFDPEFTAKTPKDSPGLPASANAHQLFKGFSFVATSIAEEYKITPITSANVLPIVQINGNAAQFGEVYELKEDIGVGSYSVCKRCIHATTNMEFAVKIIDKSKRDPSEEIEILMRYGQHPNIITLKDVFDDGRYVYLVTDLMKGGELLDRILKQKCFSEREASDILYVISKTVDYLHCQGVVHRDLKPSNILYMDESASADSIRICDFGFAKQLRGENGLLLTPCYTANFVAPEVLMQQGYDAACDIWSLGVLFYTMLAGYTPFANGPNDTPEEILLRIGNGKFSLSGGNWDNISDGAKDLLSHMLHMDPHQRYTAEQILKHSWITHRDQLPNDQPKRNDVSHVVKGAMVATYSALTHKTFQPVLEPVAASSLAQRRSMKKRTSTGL
structure (smiles),measurement,setting,value
COc1cc(N(C)c2ccnc3ccc(C(F)(F)F)cc23)cc(OC)c1OC,% binding,[1],81%
Cc1ccc(-c2ccc3c(ccc4sc5c(c43)NC[C@@H](C)NC5=O)n2)cn1,% of inhibition,[2],-7%
Nc1cnc(N2CCc3cc(S(=O)(=O)Nc4c(F)cc(Cl)cc4F)cc(N4CCCC4=O)c32)nc1 [TP-020n],% of control,[3],93%
Cc1cc([C@@H](C)Nc2ccccc2C(=O)O)c2nc(N3CCOCC3)cc(=O)n2c1 [AZD-6482],% of control,[4],100%
CCc1ccccc1C(=O)Nc1n[nH]c2c(C)c(F)c(C3C(C#N)=C(C)N(C)C(C)=C3C#N)cc12 [BAY-3827],% of control,[5],15%
CC[C@@H]1[C@H](F)C(=O)N[C@@H]1COc1nccc2cc(C(N)=O)c(OC)cc12 [ZIMLOVISERTIB],% of inhibition,[6],3.9%
Cc1cc(C)cc([C@@H]2c3cc(C)ccc3NC(=O)CN2C(=O)c2ccc(Br)s2)c1,% of inhibition,[7],-9%
COCC(=O)NC/C=C/c1ccc2ncnc(Nc3ccc(Oc4ccc(C)nc4)c(C)c3)c2c1 [CP-724714],% of control,[8],94%
N#Cc1cccc(-c2c[nH]c3ncnc(N4CCOCC4)c23)c1,% of control,[9],33%
same,% of inhibition,[10],69%
